Reference: patent US20240327423A1, “A SERIES OF PYRROLE DERIVATIVES AND THEIR PREPARATION METHOD AND THERAPEUTIC USE” (SHENZHEN SUNGENING BIO-MEDICAL CO., LTD, priority 2020, published 2024)
≈ marks a conversion by molar mass, not a printed value.

Key:
[1] = test system: Aspergillus fumigatus (ATCC MYA-4609/AF293/CBS 101355); assay: Measurement of minimum inhibitory concentration (MIC), AF293; format: cell-based; settings: CBS101355; Aspergillus fumigatus AF293, 35° C., 48 hours, RPMI1640; read-out: AF293: MIC
Method in brief: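 Broth microdilution in RPMI1640 buffered with 0.165M MOPS, pH 7.0, spore inoculum 0.2-2.5×10^4 spores/mL from SDA cultures. Twofold compound dilutions in DMSO, 1% of final volume. Incubated 35 °C for 48 h; growth scored visually with magnifier and OD530 read.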

[2] = Liver microsomal stability test, human; format: in vitro ADME; settings: Human liver microsomes; for CLint scaled / half-life: 0.5 mg/mL protein, 37° C., NADPH
Protocol: • 1: Add 10 μL of working solutions of test product or reference product and 80 μL of microsomal working solution (liver microsomal protein concentration of 0.5 mg/mL) to wells of TO, T5, T10, T20, T30, T60, and NCF60, and only microsomal working solution is added to the Blank60 wells. Then the samples of Blank60, T10, T20, T30 and T60, except for TO and NCF60, are placed in a water bath set at 37° C. and incubate for approximately 10 mins; • 2: Add 300 μL of termination solution (acetonitrile solution containing 200 ng/mL tolbutamide and 200 ng/mL labetalol) to Sample TO, followed by 10 ul of NADPH regeneration system working solution; • 3: After incubation of Blank60, T5, T10, T20, T30 and T60 on incubation plates, add 10 μL of NADPH regeneration system working solution to each sample well to start the reaction, and 10 uL of 100 mM potassium phosphate buffer is add to the NCF60 sample wells; • 4: After incubation for appropriate times (e.g., 5, 10, 20, 30 and 60 mins), 300 μL of termination solution is add to each sample well of test product and reference product on Blank60, T5, T10, T20, T30, T60 and NCF60 plates, respectively, to terminate the reaction. • 5: All sample plates are shaken well and centrifuged at 4000 rpm for 20 min, take 100 μL of the supernatant of the test product or reference product, dilute in 300 μL of pure water for LC-MS/MS analysis, respectively. • 6: Data analysis, T½ and CLint(mic) (μL/min/mg) values are calculated based on the first-order elimination kinetics, and the equations of first-order elimination kinetics are: […]

[3] = test system: Aspergillus fumigatus ATCCMYA-4690 (AF293); assay: Survival rate experiment I of mouse bloodstream infection model with Aspergillus fumigatus; format: in vivo; settings: immunosuppressed male CD-1 mouse; for survival time of mouses: 3 mg/kg orally twice daily; for day 7 survival rate: 3 mg/kg orally twice daily for 6 days, started 24 hours after infection
Protocol: Test Case 5: Survival Rate Experiment I of Mouse Bloodstream Infection Model with Aspergillus fumigatus • Experimental animals: male CD-1 mouse, 6-8 weeks old, 10 animals per group. • Induction of immunosuppression: the day of infection is defined as day 0, and mouses are injected intraperitoneally with corresponding doses of cyclophosphamide on day −4 (150 mg/kg), day −1 (100 mg/kg) and day 2 (100 mg/kg). • Microbial pathogen: Aspergillus fumigatus ATCCMYA-4690 (AF293). • Collection conditions of inoculum: culture on SDA culture plates, incubate at 25° C. for at least 7 days, collect with PBS+0.1% Tween 20, and count microscopically; • Inoculation level, route and volume: 3.60E+05 CFU/mouse, tail vein injection, injection volume of 100 μL/mouse; • Treatment: Treatment is started 24 hours after infection, and test compounds are dissolved in PEG400 (0.3 mg/mL), and used for administration orally to mouses at 3 mg/kg, twice daily for 6 days. The administrated mouses are observed for 8 hours.

[4] = test system: Aspergillus flavus (ATCC 204304); assay: Measurement of minimum inhibitory concentration (MIC), ATCC 204304; format: cell-based; settings: ATCC204304; Aspergillus flavus ATCC 204304, 35° C., 48 hours
Protocol: New streaks are made with glycerol stock solution of the strains of Aspergillus fumigatus (ATCC MYA-4609/AF 293/CBS 101355) on Sabouraud's dextrose agar (SDA), incubate at 35° C. and a humidity of 40-70% for 72 hours. Other strains are processed as the same as AF293.
RPMI1640: one packet of RPMI1640 powder is dissolved in 1 L purified water and mixed well, add 0.165M MOPS, adjust the pH to 7.0, sterilize by filtration with 0.22 um membrane, and store at 4° C. for no more than 3 months.
Physiological saline: weigh 9 g of sodium chloride powder and dissolve in 1 L of purified water, and mixed well. Sterilize at 121° C. for 30 min, store at room temperature (RT) for no more than 1 week.
Dissolve the test compound and stock solution of one control compound with DMSO and obtain solutions at a concentration of 12.8 mg/mL
The maximum concentration of each compound is 0.8 mg/mL (e.g., 150 μL of dimethyl sulfoxide+10 uL of 12.8 mg/mL compound/control). Column 1 is filled with 40 μL of compound and columns 2 to 11 with 20 μL of dimethyl sulfoxide. Transfer 20 μL of compound from column 1 to column 2 to dilute the concentration. Repeat the above steps up to column 11 to give 2× serial dilutions.
2 μL of the above 2× serial dilutions are injected into each hole of the corresponding test plate using a multichannel pipette.
Drop 5 ml of saline on the Aspergillus fumigatus SDA plate. The spores were carefully wiped off from the surface of the plate with an L-shaped coating rod. Then the suspension is transferred into a sterile tube. After shaking, let the tube stand for 5 to 10 minutes. Count the number of spores in the upper suspension with a hemocytometer and check the purity. Adjust the inoculum concentration to 0.2-2.5×10^4 spores/mL.
Inject 198 μL of diluted inoculum into each holes of the corresponding test plate using a multichannel pipette.
Incubate at 35° C. for 48 hours.
To facilitate scoring of the presence or absence of growth on the wall, a magnifying glass is used. The tested 96-well microplates were photographed and the optical density at 530 nm is read with an enzyme marker (Tecan Spark).

| Structure (SMILES) | MIC [1] | CLint scaled [2] | half-life [2] | Remaining, (T = 60 min) [2] | survival time of mouses [3] | day 7 survival rate [3] | MIC [4] |
| --- | --- | --- | --- | --- | --- | --- | --- |
| Cc1cc(-c2ccccc2)c(C(=O)C(=O)Nc2ccc(N3CCN(c4ncc(F)cn4)CC3)cc2)n1C [Example F901318, reference compound] | 30 ng/mL (≈ 0.0602 µM) | 37.8 mL/min/kg | 33 min | 27.7% | prolong the survival time | 0% | 4 ng/mL (≈ 0.00802 µM) |
| Cc1cc(-c2ccccc2)c(C(=O)C(=O)Nc2cc(F)c3c(c2)OC[C@H]2CN(c4ncc(F)cn4)CCN32)n1C [Example 5] | 16 ng/mL (≈ 0.0294 µM) | 48.8 mL/min/kg | 25.6 min | 20.4% | – | 0% | 4 ng/mL (≈ 0.00735 µM) |
| Cc1cc(-c2ccccc2)c(C(=O)C(=O)Nc2ccc3c(c2)C[C@H]2CN(c4ncc(F)cn4)CCN32)n1C [Example 33, (S)-2-(1,5-dimethyl-3-phenyl-1H-pyrrol-2-yl)-N-(2-(5-fluoropyrimidin-2-yl)-1,2,3,4,10,10a-hexahydropyrazino[1,2-a]indol-8-yl)-2-oxoacetamide] | 4 ng/mL (≈ 0.00783 µM) | 25.9 mL/min/kg | 48.2 min | 43.4% | prolong the survival time | 40% | 8 ng/mL (≈ 0.0157 µM) |
